What follows are compounds tested on P. falciparum 3D7 growth, pLDH absorbance (assay: blood-stage malaria parasite growth potency – strain 3D7, dose response (AID 2305)).

| SMILES | IC50 [nM] |
| --- | --- |
| NC1CCCN(Cc2ccc(-c3ccc(-c4nc5ccccc5[nH]4)s3)cc2)C1 (configuration not stated) | 670 |
| O=c1cc(NCCCNCc2[nH]c3cc(Cl)cc(Cl)c3c2Cn2cccn2)[nH]c2ccccc12 | 970 |
| C[C@H](Cc1ccc(C[C@@H](C)NC[C@H](O)c2cccc(Cl)c2)cc1)NC[C@H](O)COc1ccccc1 | 1170 |
| CCCCCN1CCC(CNS(=O)(=O)c2ccc(C(=O)Nc3cccc(C(F)(F)F)c3)cc2)CC1 | 750 |
| CC(C)CNCc1cccc(-c2cccc(CNCCCN3CCN(C)CC3)c2)c1 | 1180 |
| Cc1ccc(O)cc1Nc1c(C(N)=O)cnc2ccc(-c3cncs3)cc12 | 670 |
| CCCCC1(NC(=O)[C@H](CC(C)C)Nc2ccc(C#N)c3ccccc23)CCCCC1 | 800 |
| Cc1[nH]c2ccc(NS(C)(=O)=O)cc2c1C1CCN(CC2CCN(C(=O)/C=C/c3ccc(Cl)c(Cl)c3)CC2)CC1 | 680 |
| COc1ccc(CN2CCN(C(=O)c3cccs3)CC2)c(O)c1 | 840 |
| Cc1csc2nc(-c3ccccn3)nc(Nc3ccncn3)c12 | 790 |
| O=C1CC(C(=O)Nc2cccc(-c3cccc(-c4nc5ccccc5[nH]4)c3)c2)c2ccccc2N1 (configuration not stated) | 980 |
| O=C(/C=C/c1ccccc1F)NC1CCC(CCN2CCc3ccc(-c4cccnc4)cc3CC2)CC1 (configuration not stated) | 900 |
| O=C(Nc1cccc(C(F)(F)F)c1)c1ccc(S(=O)(=O)NCC2CCN(CC3CCCCC3)CC2)cc1 | 320 |
| CC(C)N1CCN(CCCCNc2c3ccccc3nc3ccccc23)CC1 | 540 |
| O=C1OC(c2ccccc2)(c2ccccc2)CN1C1CCN(Cc2ccc(O)c(Cl)c2)C1 (configuration not stated) | 960 |
| CN1CCN(CC(=O)Nc2ccc(-c3ccc(-c4nc5ccccc5[nH]4)s3)cc2)CC1 | 300 |
| CC(C)(C)c1cc(C(=O)Nc2ccc(C(=N)N)cc2)c(O)c(C(C)(C)C)c1 | 760 |
| Cc1ccccc1Nc1nc(NCc2ccccc2)nc2ccccc12 | 1020 |
| COCCNCc1ccc(-c2ccc3c(Nc4ccc(F)cc4Cl)ccnc3c2)o1 | 210 |
| CN1CCCC(CN2CCN(Cc3cccc(-c4ccc(-c5nc6ccc(F)cc6[nH]5)cc4)c3)CC2)C1 (configuration not stated) | 140 |
| CN1CCN(c2ccc(CNc3ccc4ncc(-c5ccc(OC(F)(F)F)cc5)n4n3)cc2)CC1 | 830 |
| Cc1cc(NC(=O)CCCN2CCN(c3cccc(Cl)c3Cl)CC2)ccc1N1CCN(C(C)C)CC1 | 760 |
| Cc1ncccc1-c1cccc2c(NC(=O)Nc3ccc4nccc(N5CCN(C)CC5)c4c3)cccc12 | 630 |
| CC(C)CC(=O)N(Cc1ccc(-c2ccc(CNC3Cc4ccccc4C3)cc2)cc1)C1CCNCC1 | 1170 |
| CCOC(=O)c1c(C)noc1Nc1ccc(OC)cc1 | 670 |

| SMILES | IC50 [nM] |
| --- | --- |
| c1ccc(C2=NN=C(c3ccccn3)[C@H]3[C@H]4C[C@@H]([C@@H]23)[C@@H]2[C@H]4[C@H]3C[C@@H]2c2ccccc23)nc1 | 850 |
| O=C(C=Cc1ccc(Cl)c(Cl)c1)NCCCCCN1CCC(CCNC(=O)c2sc3ccccc3c2Cl)CC1 | 1010 |
| COc1ccc(Nc2nccc(NCCNC(=O)c3cc4ccccc4s3)n2)cc1 | 1020 |
| Cn1nccc1C(=O)NCCNCc1ccc(-c2ccc(-c3nc4ccccc4[nH]3)s2)cc1 | 560 |
| COc1ccc(C(=O)N2CCN(c3ccc([N+](=O)[O-])c(NC4CC4)c3)CC2)cc1Br | 800 |
| Clc1ccc(-c2nc3ccc(-c4ccc5nc(-c6ccc(Cl)cc6)[nH]c5c4)cc3[nH]2)cc1 | 240 |
| COc1ccc(C=NNc2ccnc3ccccc23)c2ccccc12 | 700 |
| COc1c(OC)c(OC)c2ccccc2c1CCNCCCCNCCc1c(OC)c(OC)c(OC)c2ccccc12 | 610 |
| COc1ccc(C(=O)Nc2ccc(-c3ccc([N+](=O)[O-])cc3)cc2)cc1CCCN(C)C | 800 |
| COC(=O)c1cccc(NC(=O)NC2CCN(c3ccnc(Nc4ccc(F)cc4)n3)C2)c1 (configuration not stated) | 500 |
| CCCN1CC[C@@H](CCCc2ccnc3ccc(O)cc23)[C@@H](CC)C1 | 890 |
| CN1CCN(c2ccnc3ccc(NC(=O)Nc4c(Cl)cccc4Cl)cc23)CC1 | 880 |
| Cc1c(CNCCCNc2nc3ccncc3[nH]2)sc(Br)c1Br | 1040 |
| Cc1cc(NCCc2ccccc2)nc(/N=C(\N)Nc2ccc(Cl)cc2)n1 | 230 |
| O=C(Nc1ccc(OC2CCN(Cc3ccc(F)cc3)C2)c(Cl)c1)c1ccccc1 (configuration not stated) | 790 |
| Cc1cc(N[C@@H](Cc2ccccc2)C(=O)NCCc2ccccc2)nc(NCc2ccccc2C)n1 | 880 |
| Cc1ccc(CN2CCCN(Cc3cccc(C(=O)Nc4ccc(C(C)(C)C)cc4)c3)CC2)s1 | 1130 |
| CCCCCCCN1CC[C@@H](CCCc2ccnc3ccc(OCC4CCCNC4)cc23)[C@@H](CC)C1 (some centres not stated) | 620 |
| O=C(CC1NC(=O)c2ccccc21)Nc1ccc(-c2cccc(-c3nc4ccc(C(F)(F)F)cc4[nH]3)c2)cc1 (configuration not stated) | 960 |
| COc1cc(C)ccc1N1CCN(CCCCNC(=O)c2ccc(NC(=O)c3ccc(Cl)cc3)cc2)CC1 | 700 |
| COc1ccc(CN2CCCN(Cc3cccc(NC(=O)c4ccc5ccccc5c4)c3)CC2)cc1 | 1000 |
| NC(N)=NN=CC(=O)Nc1ccc(Cl)cc1 | 810 |
| Cc1[nH]c(C)c(-c2ccc(-c3ccc(F)cc3)cc2)c(=O)c1Cl | 660 |
| NOCCCCOc1ccccc1 | 180 |
| O=c1cc(NCCCNCc2cc(C(F)(F)F)ccc2F)[nH]c2ccccc12 | 830 |

| SMILES | IC50 [nM] |
| --- | --- |
| COCCNCc1cccc(-c2cccc(CN(C(=O)Nc3ccccc3)C3CCN(Cc4ccccc4)CC3)c2)c1 | 130 |
| O=C(Nc1ccc2ccccc2c1)c1ccc(CN2CCC(Cc3ccccc3)CC2)cc1 | 880 |
| CCC1(CC)N=C(N)N=C(N)C1c1ccc(Cl)c(Cl)c1 (configuration not stated) | 380 |
| Cc1ccc(O)c(-c2cc(C(=O)Nc3ccc(S(=O)(=O)N4CCCCCC4)cc3)[nH]n2)c1 | 710 |
| Cc1cc(C)n(-c2nc(Nc3cccc(C(F)(F)F)c3)nc(-n3nc(C)cc3C)n2)n1 | 360 |
| CS(=O)(=O)Nc1ccc2[nH]cc(C3CCN(CC4CCN(C(=O)/C=C/c5ccc(Cl)c(Cl)c5)CC4)CC3)c2c1 | 720 |
| FC(F)(F)c1ccc(CNCC2CCN(Cc3ccc4c(c3)OCO4)CC2)cc1 | 1360 |
| NC1=NC(c2ccccc2)N(c2ccccc2)C(N)=N1 (configuration not stated) | 290 |
| CCN(CC)CC(O)c1cc(-c2ccc(OC)cc2)nc2cc(Cl)ccc12 (configuration not stated) | 70 |
| CCCCNCc1ccc(OCc2cccc(COc3ccc(CNCCCC)cc3)c2)cc1 | 320 |
| O=C(Nc1ccc(Cl)c(C(F)(F)F)c1)N[C@H]1CCN(CCCCCNC(=O)[C@@H]2C[C@H]2c2ccc(Cl)c(Cl)c2)C1 | 1080 |
| COc1ccc(S(=O)(=O)N(c2cc(Br)cc3c2OCC3)S(=O)(=O)c2ccc(OC)c(N3CCN(C)CC3)c2)cc1N1CCN(C)CC1 | 1170 |
| COc1ccccc1CNCC(O)c1cc(C(F)(F)F)ccc1C(F)(F)F (configuration not stated) | 940 |
| O=C(c1cc(-c2ccccc2)n[nH]1)N1CCN(S(=O)(=O)c2ccc(Cl)s2)CC1 | 930 |
| OCCNc1nc(Nc2cccc(O)c2)nc2ccccc12 | 390 |
| O=C(NCCCCCN1CCC(c2c[nH]c3ccccc23)CC1)c1ccc(Cl)c(Cl)c1 | 1360 |
| NC1=NC2(CCCCC2)N(OCC2CCCCC2)C(N)=N1 | 150 |
| Cc1cccc2[nH]c(-c3cccc(-c4cccc(CN5CCN(c6ccc(C#N)cn6)CC5)c4)c3)nc12 | 1160 |
| OC(CNC1CCCCCC1)c1ccc(Cl)c(Cl)c1 (configuration not stated) | 690 |
| Cc1cc(N[C@@H](Cc2ccccc2)C(=O)NCCOc2ccccc2)nc(NCCc2ccccc2)n1 | 1030 |
| CC(C)(C)CCN1CCC(NC(=O)c2ccc(-c3cccc(C(F)(F)F)c3)s2)CC1 | 760 |
| O=C(C=Cc1ccc(Br)cc1)NC1CCC(CN2CCC(c3c[nH]c4ccccc34)CC2)CC1 (configuration not stated) | 680 |
| Cc1cc(N[C@@H](Cc2ccccc2)C(=O)NCCOc2ccccc2)nc(Nc2ccccc2)n1 | 870 |
| CC(C)C[C@H](NC(=O)c1cc(-c2ccc(F)cc2)no1)C(=O)O (tested in a mixture with another compound) | 980 |
| Cc1ccc(CNc2cc(C(F)(F)F)nc(-c3ccc(S(C)(=O)=O)cc3)n2)cc1 | 500 |

| SMILES | IC50 [nM] |
| --- | --- |
| NC1CCN(c2nc(NCCc3ccc(O)cc3)nc(NCc3ccccc3-c3ccc(C(F)(F)F)cc3)n2)CC1 | 750 |
| O=S(=O)(c1cc(Cl)ccc1Cl)N1CCCCC(c2ccc(C(F)(F)F)cc2)=N1 | 1000 |
| O=C(Nc1cccc(C(F)(F)F)c1)c1ccc(S(=O)(=O)NC2CCN(CC3CCCCC3)CC2)cc1 | 1160 |
| Cc1noc(-c2ccc3c(c2)CCN(CCC2CCC(NC(=O)/C=C/c4ccc(F)cc4)CC2)CC3)n1 (configuration not stated) | 1030 |
| c1ccc(CCNc2nc(NCC(c3ccccc3)c3ccccc3)c3[nH]cnc3n2)cc1 | 620 |
| CCCCNC(=O)C(C)NC(=O)c1ccc(O)c(-c2ccc(Cl)c(Cl)c2)c1 (configuration not stated) | 820 |
| N#Cc1cccc(CN(Cc2ccc(Cl)c(Cl)c2)S(=O)(=O)c2cccc([N+](=O)[O-])c2)c1 | 810 |
| Oc1ccc2[nH]c(-c3cccs3)nc2c1CN1CCC(N2CCCC2)CC1 | 640 |
| COC(=O)c1ccc(CC(C)NCC(O)c2cccc(I)c2)cc1 (configuration not stated) | 1320 |
| COc1cc2nccc(Nc3ccc(Oc4ccccc4)cc3)c2cc1OC | 680 |
| CCN(CC)CCNc1ccnc2[nH]c3ccc(C)cc3c12 | 670 |
| COc1ccccc1C1CCN(C2CCC(NC(=O)/C=C/c3ccc(C(F)(F)F)cc3F)CC2)CC1 (configuration not stated) | 990 |
| N#Cc1ccc2c(c1)CCN(CCC1CCC(NC(=O)c3cc4cccc(Cl)c4[nH]3)CC1)CC2 (configuration not stated) | 580 |
| c1ccc(CN2CCN(CCNc3c4ccccc4nc4ccccc34)CC2)cc1 | 880 |
| CC(=O)Nc1ccc(CN2CCC(N(C)c3cc(NC(=O)c4cccc(F)c4)ccn3)CC2)cc1 | 1380 |
| COc1cc(CNCCCCCCNCc2cc(OC)c(OC)c3ccccc23)c2ccccc2c1OC | 230 |
| O=C1OC(c2cc3ccccc3n2S(=O)(=O)c2ccccc2)(c2cc3ccccc3n2S(=O)(=O)c2ccccc2)c2ccccc21 | 850 |
| O=C(/C=C/c1ccccc1O)NCCCCCN1CCC(c2c[nH]c3ccccc23)CC1 | 830 |
| Cc1cccc2[nH]c(-c3ccc(-c4cccc(CNCc5cnn(-c6ccccc6)n5)c4)s3)nc12 | 550 |
| CC(C)c1cc(Oc2c(I)cc(CCCc3ncc[nH]3)cc2I)ccc1O | 1120 |
| NC(=NCc1ccc(Cl)c(Cl)c1)NC(=NCCCCCCN=C(NC(N)=NCc1ccc(Cl)c(Cl)c1)N1CCCCC1)N1CCCCC1 | 570 |
| N#Cc1ccccc1C(=O)N(Cc1cncn1Cc1cccc(F)c1)CC1CC1 | 730 |
